Laboratory results: patent US10028992B2, “Methods of treating muscular dystrophy” (BOARD OF REGENTS OF THE NEVADA SYSTEM OF HIGHER EDUCATION …, priority 2012, dated 2018)

Tested on: α7 integrin promoter
Experiment: muscle cell-based assay: α7βgal+/− myoblasts/myotubes, LacZ reporter, β-galactosidase cleavage of FDG
Set-up: species or system mouse
Details: Myotubes; for Results in a α7+/− β-galactosidase assay, Myotubes, 0.5 uM: compound at 0.5 uM; for Results in a α7+/− β-galactosidase assay, Myotubes, 1 uM: compound at 1 uM; for Results in a α7+/− β-galactosidase assay, Myotubes, 5 uM: compound at 5 uM; for Results in a α7+/− β-galactosidase assay, Myotubes, 10 uM: compound at 10 uM; for Results in a α7+/− β-galactosidase assay, Myotubes, 20 uM: compound at 20 uM; for Results in a α7+/− β-galactosidase assay, Myotubes, 40 uM: compound at 40 uM
How it was run: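 Primary α7βgal+/− mouse myoblasts (LacZ knocked into α7 integrin exon 1, promoter retained), differentiated; promoter activity read as β-galactosidase conversion of non-fluorescent FDG to fluorescein. Hits followed by dose-response, western analysis and myostatin counterscreen.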

Row | Compound | Results in a α7+/− β-galactosidase assay, Myotubes, 0.5 uM | Results in a α7+/− β-galactosidase assay, Myotubes, 1 uM | Results in a α7+/− β-galactosidase assay, Myotubes, 5 uM | Results in a α7+/− β-galactosidase assay, Myotubes, 10 uM | Results in a α7+/− β-galactosidase assay, Myotubes, 20 uM | Results in a α7+/− β-galactosidase assay, Myotubes, 40 uM
1 | CNC(=O)CSc1nnc(-c2ccc3c(c2)OCO3)n1C [drawing 328] | 0.08818 | −0.1177 | 0.04868 | 0.07527 | −0.1599 | −0.2763
2 | Cc1ccccc1NC(=O)NCCCN1CCN(C)CC1 [drawing 329] | 0.0927 | 0.04605 | −0.02688 | −0.00108 | 0.01494 | −0.02803
3 | CC1(C)Cc2c(c(N3CCOCC3)nc3sc(C(=O)Nc4ccccc4)c(N)c23)CO1 [drawing 330] | 0.2661 | 0.1201 | −0.3453 | −0.3697 | 0.0827 | −0.164
4 | COc1ccc(N2CCN(C(=O)c3cc(C)on3)CC2)cc1 [drawing 331] | 0.1218 | 0.07329 | 0 .416848 | 0.01619 | −0.09449 | −0.06707
5 | CCOn1c(=O)c(-c2ccccc2)[n+]([O-])c2ccccc21 [drawing 332] | 0.2995 | 0.2794 | 0.2514 | 0.005171 | −0.0871 | −0.1572
6 | O=S(=O)(N/C(=N/C1CCCCC1)c1ccccc1F)c1ccccc1 [drawing 334] | 0.1113 | 0.07899 | 0.00127 | 0.03577 | −0.0234 | −0.0349
7 | CCCCNc1nnc(Cc2ccc(Cl)cc2)c(O)n1 [drawing 335] | 0.2647 | 0.1668 | −0.1354 | −0.08652 | −0.07223 | −0.1
8 | CC(C)CN(C(=O)c1cccc(Cl)c1)c1c(N)n(Cc2ccccc2)c(=O)[nH]c1=O [drawing 336] | 0.198 | 0.2672 | −0.02107 | 0.07176 | −0.1352 | −0.2545
9 | Cc1nc(O)nc(O)c1S(=O)(=O)Nc1ccc(F)cc1Cl [drawing 337] | 0.2345 | 0.05045 | 0.06886 | 0.09509 | −0.05815 | −0.1517
10 | Cc1nnc(-c2ccc(N3CCOCC3)c([N+](=O)[O-])c2)o1 [drawing 338] | 0.0728 | 0.1596 | −0.09085 | −0.1238 | 0.04847 | −0.1846
11 | Cc1cc(C)cc(OCC(=O)N/N=C/c2ccccn2)c1 [drawing 339] | 0.02382 | 0.1393 | 0.05474 | −0.09985 | 0.0109 | 0.02169
12 | O=C1Nc2ccccc2/C1=C/c1c[nH]c(-c2ccccc2)n1 [drawing 340] | 0.05652 | 0.1643 | 0.09489 | −0.07868 | −0.03697 | −0.06801
13 | O=C(c1ccccc1)N1CCN(S(=O)(=O)c2cccs2)CC1 [drawing 341] | 0.0882 | 0.04972 | 0.07204 | −0.06595 | −0.01414 | −0.06305
14 | COc1ccccc1C(=O)Nc1ccnn1C1CCN(C(=O)c2ccoc2)CC1 [drawing 343] | 0.01341 | −0.07814 | 0.06946 | 0.05194 | −0.08844 | −0.04958
15 | CCOC(=O)c1nnn(-c2nonc2OC)c1-c1ccccc1 [drawing 344] | 0.0549 | 0.07612 | 0.1364 | 0.03578 | 0.0782 | −0.03173
16 | CC(C)(C)Nc1nc(-c2ccc3c(c2)CCN3C(=O)C2CC2)cs1 [drawing 345] | 0.1684 | 0.1611 | 0.06864 | 0.06011 | −0.1349 | −0.5189
17 | CCN(C(=O)c1ccc(S(=O)(=O)N(C)C)cc1)C(C)C(=O)Nc1ccc(C)cc1 (stereo not drawn) [drawing 348] | −0.152 | −0.2399 | −0.0943 | 0.05776 | −0.2237 | 0.02912
18 | COc1cc(NC(=O)OCc2ccccc2)c2ncccc2c1 [drawing 349] | 0.01764 | 0.03267 | −0.1098 | −0.05054 | −0.1951 | −0.2383
